Consider eight compounds from US20030236301A1, “Liposomal delivery of vitamin E based compounds” (priority 2001, published 2003).

Where “and” joins values, the source holds several entries; their conditions need not be identical. Equal entries are not always repeated. Entries after “also recorded” stand apart in the source; their conditions may differ.

Data set [1] concerns 66 c1.4 GFP murine mammary tumor cells. Briefly: Tumor growth of 66 c1.4-GFP mammary tumor cells in Balb/c mice (tumor volume). The settings on record: for inhibition of tumor growth: Example 18: liposomal formulation by aerosol; for reduction of mean tumor volume vs aerosol control: Example 25: liposomal α-TEA/aerosol.
Experimental: 66 c1.4-GFP cells were harvested by trypsinization, centrifuged, resuspended in McCoy's media, containing no supplements at a density of 2×10^5/100 μl. Mice were injected in the inguinal area at a point equal distance between the 4th and 5th nipples on the right side using a 23 gauge needle.
50 mice were assigned (10 per group) to aerosol treatment, aerosol control, oral treatment, oral control, or to the no treatment group so that the average tumor volume for all groups were closely matched. […] Tumors were measured using calipers every other day, and volumes were calculated using the formula: volume (mm^3) [width (mm)^2×length (mm)]/2. Body weights were determined weekly.
Balb/c mice were injected with 200,000 66 c1.4 GFP cells subcutaneous in the mammary fat pad area between the 4th and 5th nipple on the right side of the body.
Mice are injected with 200,000 66 c1.4 GFP murine mammary tumor cells as described on day 0. Treatments are initiated on day 9 when tumors reached 1-3 mm in size. Aerosol treatments of α-TEA liposomes (5 mg α-TEA/mouse) are administered daily for 16 days (FIG. 8). Data represent the mean+/−Standard Error (SE), N=10 mice for control and treatment groups.
Balb/c mice were injected s.c. with 2×10^5 66 c1.4-GFP cells in the inguinal area between the 4th and 5th nipple on the right side of the body. When tumors reached 2×2-4×4 mm (9 days after tumor injection), mice were placed into 5 groups ((Group 1: untreated control, Group 2: liposome/aerosol control, Group 3: liposomal α-TEA aerosol treatment, Group 4: peanut oil/gavage control, Group 5: α-TEA in peanut oil/gavage treatment) of 10 mice/group) such that the mean tumor volume of each group was closely matched. Daily treatments were initiated on day 9 after tumor injection.
Balb/c mice were injected with 200,000 66 c1.4 GFP cells subcutaneous in the mammary fat pad area between the 4th and 5th nipple on the right side of the body. […] Animals were treated with α-TEA in liposome, vitamin E succinate in liposome, or control liposome alone via aerosol, 7 days per week, for 21 days. Animals were given 75 mg compound via nebulization per day such that each animal received 36 μg compound per day.
The size of the tumors, 9-21 days after injection of 200,000 66 c1.4 GFP cells between the 4th and 5th nipple on the right side of each mouse, is determined. Treatments are initiated on day 9 after tumor inoculation. Each group consists of n=10+/−SE. Gavage Treatment=Treatments of 5 mg of α-TEA in ethanol and peanut oil (0.1 ml volume) are administered daily starting on day 9 after tumor inoculation and continuing through day 21. Gavage Control=Mice received peanut oil and ethanol alone (0.1 ml volume)/daily, starting on day 9 after tumor inoculation and continuing through day 21. Data (tumor size) are depicted as the mean+/−standard error for days 9, 11, 13, 15, 17, 19, and 21.
Balb/c mice were injected with 200,000 66 c1.4 GFP cells subcutaneous in the mammary fat pad area between the 4th and 5th nipple on the right side of the body. […] Animals were treated with α-TEA in liposome vitamin E succinate in liposome, or control liposome alone via oral gavage, 2 times per day, 7 days per week, for 21 days. Animals were given a total of 6 mg compound per day.
A further data set deals with MDA-MB-435 GFP FL cells. The data set can be described thus: Tumor growth of MDA-MB-435 GFP FL breast cancer cells in nude mice. It is filed as in vivo, Nu/Nu athymic nude mice. To be noted: for reduction of tumor growth: Example 32: liposome gavage, 8 mg per day. How it is done: Animals were given a total of 8 mg compound per day. […] Alpha-TEA liposome gavage reduced tumor growth by 68, 75, 78, 79 and 79% on days 27, 29, 31, 33, and 35, respectively (FIG. 15).
Animals were […] 3 ppm methylselenocysteine (MSC) in water, α-TEA in liposome via aerosol, or gavaged 10 mg/kg b.w. trans-resveratrol (t-RES) in first 1:1. EtOH:physiological saline, and starting at day 24, 6.5% EtOH and 93.5% Neobee oil. A combination group was treated with each of the above three compounds, and a control group was treated with aerosolized liposome. 100 μl water, and 50 μl of the t-Res solvent. Animals were treated seven days a week, for 35+ days.

The subject of data set [2] is 66 c1.4 GFP murine mammary tumor cells. The data set can be described thus: Lung and lymph node metastases of 66 c1.4-GFP tumors in Balb/c mice. It counts as in vivo. The source says:
Metastastic lesions in the five lung lobes were counted visually at time of sacrifice. Fluorescent green micro-metastatic cancer cell colonies in the left lung lobe and lymph nodes were counted using a Nikon fluorescence microscope (TE-200) with a 20×objective (200× magnification) and Image-Pro Plus (version 4.1; Media Cybernetics, Silver Spring, Md.) software associated with the microscope. Fluorescent lesions were separated into three size grouping: <5 μm, 5-10 μm and >10 μm.
At sacrifice, lungs were taken, examined visually for metastatic lesions and frozen for analyses of micrometastases by fluorescence.
Use of a Nikon fluorescence microscope and Image-Pro Plus software permitted measurement of green fluorescing micrometastases into three size groupings of <5 μm, 5-10 μm and >10 μm.
At sacrifice, the left lung lobe of each mouse of flash frozen and saves for detection of GFP expressing micrometatstic lesions via fluorescent microscopy.

Data set [3] has as its system 66 c1.4-GFP cells. The data set can be described thus: Apoptosis by morphological evaluation of DAPI-stained nuclei. To be noted: three days; for nuclear morphology of DAPI stained cells: 10 μg/ml.
Experimental: Briefly, 1×10^5 cells/well in 12-well plates were cultured overnight to permit attachment. […] After treatment, floating cells plus scraped-released adherent cells were pelleted by centrifugation for 5 min at 350×g, washed one time with phosphate buffered saline (PBS; 137 mM NaCl, 2.7 mM KCL, 10.4 mM Na2HPO4, 10.5 mM KH2PO4; pH 7.2), and stained with 2 μg/ml of 4′,6-diamidino-2-phenylindole dihydrochloride (DAPI, Boehringer Mannheim, Indianapolis, Ind.) in 100% methanol for 15 min at 37° C.
Cells were viewed at 400× magnification with a Zeiss ICM 405 fluorescent microscope using a 487701 filter. […] Data are reported as percentage of apoptotic cells per cell population, i.e., number apoptotic cells/total number of cells counted. Three different microscopic fields were examined and 200 cells counted at each location for a minimum of 600 cells counted per slide. Apoptotic data are presented as mean±S.D. for three independently conducted experiments.
The subject of data set [4] is A2780 cisplatin-sensitive cell line. Briefly: Apoptosis in A2780 ovarian cancer cells in vitro. It counts as cell-based, human. The settings on record: treated in culture.
The test system of data set [5] is 66 c1.4-GFP cells. The data set can be described thus: Colony-forming assay. To be noted: 10 days.
Experimental: 66 c1.4-GFP cells were seeded at 600 cells per 35×10 mm tissue culture plate (Nunclon, Rochester, N.Y.) and allowed to adhere over night at 37° C. […] Treatments were left on the cells for 10 days without change of media. After 10 days, media were removed and plates were washed with PBS three times. Cells were stained for 30 min with 1% methylene blue in PBS and colonies >0.5 mm manually counted.
Data set [6] can be described thus: Serum and tissue levels of α-TEA after liposomal aerosol (HPLC). It is filed as in vivo, mice. How it is done:
Eight mice are treated via pulmonary aerosol delivery with 40 mg of α-TEA (5 mg/mouse) in 6 ml liposomes. The mice inhaled the aerosol over a period of 30 minutes until delivery was complete. Mice are sacrificed 0, 2, 6, or 24 hours after the treatment ended. Serum and tissue levels of α-TEA are determined by HPLC analyses (FIG. 7).

Data set [7] is described as follows: Body weight and long term safety in Balb/c mice. It counts as in vivo. How it is done:
Body weights were determined weekly.
Nine days after tumor inoculation, treatments groups are initiated: Aerosol Treatment (TX)=aerosol delivery of α-TEA liposome (5 mg/mouse)/daily through day 23. Aerosol Control=Aerosol delivery of liposome composition only daily through day 23. Gavage treatment=gavage administration of α-TEA at 5 mg/mouse in ethanol/peanut oil daily through day 23. Gavage control=gavage administration of ethanol/peanut oil only through day 23. Mice were weighed at the initiation of treatment (day 9) and thereafter on days 13, 16, 20, and 23 (FIG. 6). Data are presented as the mean+/−standard deviation.

The conditions of data set [8]: AeroTech II nebulizer; geometric standard deviation 2.04.
Experimental: Aerosol was administered to mice as previously described (17).
The test system of data set [9] is Poly (ADP-Ribose) Polymerase (PARP) cleavage in 66 c1.4-GFP cells. The data set can be described thus: Western immunoblot detection of PARP cleavage fragment. To be noted: 48 hours. It counts as cell-based, mouse. How it is done: Poly (ADP-Ribose) Polymerase cleavage was analyzed as an alternate method for detecting apoptosis. 66 c1.4-GFP cells were treated as described above for the DAPI assay. Following the PBS wash, cells were suspended in lysis buffer (1×PBS, 1% Nonidet P-40, 0.5% sodium deoxycholate, 0.1% sodium dodecyl sulfate (SDS), 1 μg/ml leupeptin, 1 μg/ml aprotinin, 1 mM dithiothreitol (DTT), 2 mM sodium orthovanadate, 10 μg/ml phenylmethylsulfonyl fluoride (PMSF)) for 30 min at 4° C., vortexed, and supernatants collected by centrifugation at 15,000×g for 20 min. Protein concentrations were determined using the Bio-Rad (Bradford) protein assay (Bio-Rad Laboratories, Hercules, Calif.), and samples (100 μg/lane) resolved on 7.5% SDS-polyacrylamide gels electrophoresed under reducing conditions.
Proteins were electroblotted onto a nitrocellulose membrane ([…] Optitran BA-S-supported nitrocellulose; Schleicher and Schuell, Keene, N.H.). After transfer, membranes were blocked with blocking buffer [25 mM Tris-HCl (pH 8.0), 125 mM NaCl, 0.5% Tween-20, and 5% non-fat dry milk] for 45 min at room temperature. Immunoblotting was performed using 1 μg of primary rabbit anti-human Poly (ADP-Ribose) Polymerase antibody [PARP (H-250), Santa Cruz Biotechnology, Santa Cruz, Calif.], and horseradish peroxidase-conjugated goat anti-rabbit immunoglobulin was used as the secondary antibody (Jackson Immunoresearch Laboratory, West Grove, Pa.) at a 1:3,000 dilution. Horseradish peroxidase-labeled bands from washed blots were detected by enhanced chemiluminescence (Pierce, Rockford, Ill.) and autoradiography (Kodak BioMax film; Rochester, N.Y.).
(In western blotting, separated proteins are transferred to a membrane and probed.)

Data set [10] can be described thus: Aerosol characteristics: estimated α-TEA deposited in respiratory tract (HPLC, All Glass Impinger). Set-up: species or system mouse. To be noted: liposomal aerosol, 15 min, estimated deposited fraction 30%.
Experimental: HPLC analyses were conducted on α-TEA liposomes recovered from aerosol in the All Glass Impinger (Ace Glass Co., Vineland, N.J.). The delivered dosage=concentration (μg/L)×mouse minute volume (1-min/kg)×duration of delivery (min)×estimated deposited fraction (30%; 17).
The subject of data set [11] is cp-70 human ovarian cancer cells. Briefly: Apoptosis in cp-70 ovarian cancer cells in vitro. It is filed as cell-based. The settings on record: treated in culture.
The mark [12] stands for this setting: 75 mg in nebulizer/day, day 15 of treatment.
The mark [13] stands for this setting: 75 mg in nebulizer/day, day 17 of treatment.
[14] abbreviates: Example 18: liposomal preparation delivered by aerosol.
The mark [15] stands for this setting: Example 31: liposomal formulation via gavage, 6 mg per day.
[16] abbreviates: Example 33: liposomal aerosol, α-TEA 5 mg/d, 9NC 2 μg/d in nebulizer, listed as Lip/α-TEA.
The mark [17] stands for this setting: liposomal aerosol, at sacrifice.

As for `CC(=O)Oc1c(C)c(C)c2c(c1C)CCC(C)(CCCC(C)CCCC(C)CCCC(C)C)O2` (racemic) [dl-α tocopherol acetate, dl-α-tocopherol acetate], the figures for the “inhibition of tumor growth” value in [1] (setting [12]) and in data set [1] (setting [13]) were 29% and 57%, respectively.

As for `Cc1cc(O)cc2c1O[C@](C)(CCC[C@H](C)CCC[C@H](C)CCCC(C)C)CC2` [RRR-delta tocopherol, RRR-delta-tocopherol], the “inhibition of tumor growth” value in [1] (setting [12]) stood at 25%; in data set [1] (setting [13]), 40%.

As to `Cc1c(C)c2c(c(C)c1O)CC[C@@](C)(CCC[C@H](C)CCC[C@H](C)CCCC(C)C)O2` [RRR-α tocopherol, RRR-α-tocopherol], in data set [1] (setting [14]), the “effect on tumor growth” value is reported as “enhanced tumor growth” and the “tumor volume compared with control mice” value is on record as “not significantly greater”.

`CC(C)=CCC/C(C)=C/CC/C(C)=C/CC[C@]1(C)CCc2c(C)c(O)c(C)c(C)c2O1` [RRR-α-tocotrienol]: the “inhibition of tumor growth” value in [1] (setting [12]) is reported as 34%; in data set [1] (setting [13]), 27%.

In the case of `Cc1c(O)cc2c(c1C)O[C@](C)(CCC[C@H](C)CCC[C@H](C)CCCC(C)C)CC2` [RRR-γ tocopherol, RRR-γ-tocopherol], in data set [1] (setting [14]), the “effect on tumor growth” value is listed as “enhanced tumor growth” and the “tumor volume compared with control mice” value is “significantly higher”.

With `Oc1ccc(/C=C/c2cc(O)cc(O)c2)cc1` [t-RES, trans-resveratrol, reference compound], the “increase of tumor volume from the control” value with MDA-MB-435 GFP FL cells (Example 35: day 35) is given as 61.2%.

Turning to `Cc1c(C)c2c(c(C)c1OC(=O)CCC(=O)O)CC[C@@](C)(CCC[C@H](C)CCC[C@H](C)CCCC(C)C)O2` [vitamin E succinate, RRR-α-tocopheryl succinate, reference compound], in data set [2] (setting [15]), the “effect on lung metastasis” value is “no effect on lung metastasis” and the “effect on lymph node micrometastatic lesions (FIG. 14B)” value is on record as “not effective”. The “apoptosis (percentage of apoptotic cells)” value in the data set with 66 c1.4-GFP cells [3] (2.5 μg/ml) is recorded as 3%. The “apoptosis (percentage of apoptotic cells)” value in the data set with 66 c1.4-GFP cells [3] (5 μg/ml) turned out to be 5%. In addition, the “nuclear morphology of DAPI stained cells” value in the data set with 66 c1.4-GFP cells [3] was “exhibited condensation and fragmented DNA”. Also, the “reduction of tumor growth” value in data set [1] (Example 26: liposome aerosol, 75 mg in nebulizer/day, day 17) was 76%. In data set [1] (Example 30: liposome gavage, 6 mg per day, 21 days), the “effect on tumor growth” value was “did not reduce tumor growth”.

Turning to `Cc1c(C)c2c(c(C)c1OCC(=O)O)CC[C@@](C)(CCC[C@H](C)CCC[C@H](C)CCCC(C)C)O2` [α-TEA, 2,5,7,8-tetramethyl-(2R-(4R,8R,12-trimethyltridecyl)chroman-6-yloxy) Acetic Acid], the induction of apoptosis result in data set [4] and in data set [11] was “undergo apoptosis” throughout. The “reduction of tumor growth” value with MDA-MB-435 GFP FL cells (day 27) turned out to be 68%; with MDA-MB-435 GFP FL cells (day 29), 75%; in the data set with MDA-MB-435 GFP FL cells (day 31), 78%; with MDA-MB-435 GFP FL cells (day 33) it was 79%; with MDA-MB-435 GFP FL cells (day 35), 79%; in data set [1] (Example 26: liposome aerosol, 75 mg in nebulizer/day, day 21), 67%. Further, the “reduction of tumor growth” value is 85% in data set [1] (Example 30: liposome gavage, 6 mg per day, day 15); 85% in [1] (Example 30: liposome gavage, 6 mg per day, day 17); 70% in data set [1] (Example 30: liposome gavage, 6 mg per day, day 21). Besides, the “decrease of tumor volume from the control” value in the data set on MDA-MB-435 GFP FL cells (Example 35: day 35) was 47.8%. Moreover, in the data set on 66 c1.4-GFP cells [5] (1.25 μg/ml), the “decrease of colony formation compared to EtOH control” value was 30%. For the same compound, the colony formation result in the data set with 66 c1.4-GFP cells [5] (5 μg/ml) and in the data set on 66 c1.4-GFP cells [5] (10 μg/ml) was “No colonies formed” in each case. For the same compound, the “serum and tissue presence of α-TEA” value in data set [6] (liposomal aerosol 5 mg/mouse over 30 minutes, 0 hours after treatment ended) was “found only in the stomach tissue”; in data set [6] (liposomal aerosol 5 mg/mouse, 2 hours after completion of treatment), “present in the serum and stomach”; in data set [6] (liposomal aerosol 5 mg/mouse, 6 hours after completion of treatment), “present in the liver and stomach”; in [6] (liposomal aerosol 5 mg/mouse, 24 hours after completion of treatment), “present in the liver and stomach”. In data set [7] (non-tumor bearing mice, aerosol or gavage for 17 days, kept eleven months), the “long term adverse effects” value was “did not show any adverse effects”. For the same compound, the “body weight vs control groups” value in data set [7] (tumor-bearing mice, liposome aerosol or gavage in ethanol/peanut oil, 5 mg/mouse daily) is reported as “no significant weight differences; also recorded: No differences in mean body weights”. Besides, the “lymph node micrometastatic lesions (average)” value in [2] (setting [15]) was 3.1±0.8. Also, the “Inhibition (%) Metastases Lung” value in [2] (setting [16]) amounted to 71%; in data set [2] (Liposomal, Aerosol, 5 mg/d, vs aerosol control), 81%; in [2] (Liposomal, Gavage, 3 mg/2× d), 59%. Moreover, the “Inhibition (%) Metastases Lymphnode” value in data set [2] (setting [16]) was found to be 94%; in data set [2] (Liposomal, Gavage, 3 mg/2× d), 56%. In addition, in [2] (setting [17]), the “No. Animals/Group with Visible Lung Metastases” value is given as 0/10. The “No. Visible Lung Tumor Foci/Animal” value was “No visible tumors” in data set [2] (setting [17]) and 0 in [2] (liposomal aerosol, at sacrifice, listed as Aer./Liposome/α-TEA). Also, the “mass median aerodynamic diameter of liposome aerosol” value in data set [8] came to 2.01 μm. The “PARP cleavage (84 kDa fragment)” value is given as “only intact PARP protein was detected” in data set [9] (5 μg/ml), “evident” in data set [9] (10 μg/ml) and “evident” in data set [9] (20 μg/ml). For the same compound, the “apoptosis (percentage of apoptotic cells)” value in the data set with 66 c1.4-GFP cells [3] (2.5 μg/ml) stood at 5%; in the data set with 66 c1.4-GFP cells [3] (5 μg/ml), 6%. Moreover, the “nuclear morphology of DAPI stained cells” value in the data set on 66 c1.4-GFP cells [3] was “exhibited condensation and fragmented DNA”. For the same compound, the “reduction of mean tumor volume vs aerosol control” value in [1] (day 13 of treatment) is on record as 50%; in data set [1] (day 17 of treatment), 61%. Further, the “tumor weights vs gavage control” value in data set [1] (Example 27: gavage, 5 mg in ethanol and peanut oil daily, days 9-21) is reported as “no significant differences”. Besides, in data set [1] (Example 28: gavage, 5 mg/day/mouse EtoH/peanut oil formulation), the “mean tumor volume vs gavage control” value was “did not differ”. Besides, the “Inhibition (%) Tumor Growth” value in [1] (setting [16]) is recorded as 65%; in data set [1] (Liposomal, Gavage, 3 mg/2× d), 70%. For the same compound, the “α-TEA deposited in the respiratory tract of each mouse each day” value in data set [10] was “approximately 36 μg and ~36 μg”.
